Patent US20020169123A1, “Regulating apoptosis in TRAIL-resistant cancer cells, while protecting normal, non-cancerous cells” (THE TRUSTEES OF THE UNIVERSITY OF PENNSYLVANIA, priority 2001, published 2002)

How the values were obtained:
[1] = tested on: all cells, including cancer cells; assay: protection from the killing effect of TRAIL by caspase inhibitors; assay type: cell-based; settings: stated without experimental detail
[2] = tested on: TRAIL-sensitive SW480 colon cancer cells; assay: apoptosis-inducing activity of adenovirus-expressed TRAIL; assay type: cell-based, human; settings: z-VAD-FMK 20 μM added 1 hour after onset of virus infection
Source text: (§1) To make an adenovirus expressing extra-cellular portion of TRAIL (amino acids (Aa) 95 to 281), pAdTRACK/CMV and pAdEasy systems were used as previously described (He et al., Proc. Natl. Acad. Sci. USA 95:2509-2514 (1998)). In short, the extra-cellular portion of TRAIL was amplified by PCR (polymerase chain reaction). The amplified fragment was fused directly to the signal peptide of a mouse Ig κ chain, which is secreted into the media from the cells. Then, an isoleucine zipper (ILZ) fragment was inserted between the signal peptide and TRAIL to induce self-trimerization (Harbury et al., Science 262:1401-1407 (1993)). The final resulting construct was cloned into pAdTRACK/CMV, and then a recombinant plasmid was generated in BJ5183 E. coli by co-transforming PmeI-digested TRAIL-cloned pAdTRACK/CMV and pAdEASY.
(§2) The recombinant plasmid was digested with PacI, and was used for transfection into […] 293 cells using Superfect (QIAGEN, Valencia, Calif.). Approximately five (5) days after transfection, when comet-like patches of the green cells appeared, the cells were harvested. The viruses were amplified and purified as previously described (El-Deiry et al., Cell 75:817-825 (1993)). The infectivity of the viruses was checked by the observation of green fluorescence using a fluorescence microscope. […]

[3] = tested on: normal esophageal epithelial EPC2 cells; assay: effect of Ad-ILZ-TR derived TRAIL; assay type: cell-based; settings: EPC2 cells in the presence of z-LEHD-FMK
Source text: as §1, §2

[4] = tested on: EPC2-GFP and TRAIL-sensitive TE2 mixed culture; assay: active-caspase 3 assay in mixed culture; assay type: cell-based, human; settings: TRAIL 4 hours with z-LEHD-FMK
Protocol: Finally, to confirm the observation that there was preferential protection of z-LEHD-FMK on normal esophageal epithelial cells in TRAIL-mediated apoptosis, but no similar protection afforded to TRAIL-sensitive esophageal cancer cells, both EPC2-GFP (2×10^5 cells) and TRAIL-sensitive TE2 (5×10^5 cells) were grown as a mixed culture in a 6-well plate. The cells were treated with TRAIL for 4 hours in the presence, or absence, of z-LEHD-FMK. An active-caspase 3 assay was performed, and the two populations within the mixed-cells were distinguished by the presence (EPC2-GFP), or absence (TE2), of GFP. […] Experiments were done in duplicate (mean value±SD).

[5] = tested on: TRAIL-sensitive esophageal cancer cells; assay: active-caspase 3 assay, effect of z-LEHD-FMK on TRAIL-sensitive cancer cells; assay type: cell-based, human; settings: extent of apoptosis slightly reduced
Protocol: Next, to determine the effect of z-LEHD-FMK on TRAIL-sensitive esophageal cancer cells (i.e., could z-LEHD-FMK also protect TRAIL-sensitive esophageal cancer cells from apoptosis), an active-caspase 3 assay was performed, as described above in the assay shown in FIG. 4A.

[6] = tested on: TRAIL-resistant HCE4, TE3, and TE5 cells; assay: active-caspase 3 assay, adriamycin plus TRAIL; assay type: cell-based, human; settings: z-LEHD-FMK 20 μM added 2 hours before TRAIL
Protocol: Cells were treated with TRAIL (50 ng/mL final concentration) and 1 μg/mL of anti-6× His (N-terrninal histidine antibody) for 4 hours or for 16 hours. The caspase inhibitor was used at a final concentration of 20 μM, and was added 2 hours prior to the addition of TRAIL. When the cells were treated with both cycloheximide (CHX) and TRAIL, CHX (10 μg/mL final concentration) was added 6 hours before the addition of TRAIL. In the case of adriamycin, cells were pre-treated with adriamycin (0.5 μM final concentration) for 16 hours before the addition of TRAIL.
(§3) For detecting apoptosis mediated by TRAIL, an active-caspase 3 assay was performed using Cytofix/Cytoperm kit (Pharmingen, San Diego, Calif.), as previously described (Kim et al., Int. J. Oncol. 18:241-247 (2001)). Briefly, using standard techniques, 5×10^5 cells were seeded into a 6 well plate, after which, the cells were treated with TRAIL cross-linked with anti-6× His antibody. […] After washing, the cells were probed with 0.125 μg/μl of Phycoerythrin (PE)-conjugated goat anti-rabbit secondary antibody (Ab) (CALTAG Laboratories, Burlingame, Calif.) for 20 minutes in the dark. The intensity of PE was analyzed by flow cytometry using a Beckman-Coulter Epics Elite analyzer.
Accordingly, adriamycin was tested to determine whether its combination with TRAIL could induce synergistic cell killing in TRAIL-resistant esophageal cancer cells. TRAIL-resistant HCE4, TE3, and TE5 cells were pre-treated with 0.5 μM adriamycin for 16 hours, followed by incubation for 4 hours in the presence of TRAIL. z-LEHD-FMK (20 μM final concentration) was added 2 hours before the addition of TRAIL. An active-caspase 3 assay was used to determine whether apoptosis occurred.
Next, z-LEHD-FMK was tested in the HCE4, TE3 and TE5 cells to determine the protective effect of z-LEHD-FMK, if any, on the synergistic cell death driven by the combination of adriamycin with TRAIL.

[7] = tested on: EPC2 normal esophageal epithelial cells
Protocol: Normal human primary epithelial cells (EPC2, provided by Dr. Anil Rustgi, University of Pennsylvania) and primary human foreskin keratinocytes (HFK, provided by Dr. John C. Ansel, Emory University), were grown in Keratinocyte-SFM medium (Gibco BRL, Rockville, Md.) containing bovine pituitary extract (40 μg/mL) and epidermal growth factor (1 ng/mL). The primary epithelial cells were used at passage 4 or 5.
The N-terminal histidine (His) tagged recombinant human TRAIL (rhTRAIL, Thr-95 to Gly-281) was obtained from R&D Systems (Minneapolis, Minn.). A mouse monoclonal anti-6× His antibody (R&D Systems) was used for cross-linking the rhTRAIL. […] Cells were treated with TRAIL (50 ng/mL final concentration) and 1 μg/mL of anti-6× His (N-terrninal histidine antibody) for 4 hours or for 16 hours. The caspase inhibitor was used at a final concentration of 20 μM, and was added 2 hours prior to the addition of TRAIL. […] In the case of adriamycin, cells were pre-treated with adriamycin (0.5 μM final concentration) for 16 hours before the addition of TRAIL.
as §3

normal human hepatocytes = settings: Ozoren et al., 2000; cited from earlier work

Substance | protection from the killing effect of TRAIL [1] | cleavage of caspase 3 and PARP in Ad-ILZ-TR infected cells with inhibitor [2] | protection from cell death by Ad-ILZ-TR derived TRAIL [3] | TRAIL-mediated apoptosis in presence of z-LEHD-FMK, TE2 population ([4]; mixed culture with EPC2-GFP) | protection from TRAIL-mediated apoptosis, EPC2-GFP population ([4]; mixed culture with TE2) | effect of z-LEHD-FMK on TRAIL-mediated apoptosis [5] | effect of z-LEHD-FMK on cell death by adriamycin plus TRAIL ([6]; HCE4 cells) | effect of z-LEHD-FMK on cell death by adriamycin plus TRAIL ([6]; TE3 and TE5 cells) | protection from cell killing by TRAIL plus adriamycin ([7]; EPC2 cells in the presence of z-LEHD-FMK) | protection from TRAIL-mediated apoptosis ([7]; EPC2 cells, TRAIL 50 ng/mL 4 hours, z-LEHD-FMK 20 μM added 2 hours before TRAIL) | rescue from TRAIL-mediated apoptosis (normal human hepatocytes)
z-VAD-FMK | protect all cells, including cancer cells, from the killing effect of TRAIL | no cleavage was observed |  |  |  |  |  |  |  |  | 
z-LEHD-FMK (HELM PEPTIDE1{[O=C(OCc1ccccc1)[*:2]].L.E.H.D.[FC[*:1]]}$$$$V2.0; SMILES CC(C)C[C@H](NC(=O)OCc1ccccc1)C(=O)N[C@@H](CCC(=O)O)C(=O)N[C@@H](Cc1c[nH]cn1)C(=O)N[C@@H](CC(=O)O)C(=O)CF) |  |  | completely protected from cell death | continued to undergo apoptosis | almost completely protected | still underwent apoptosis | still killed in a synergistic way | almost completely blocked cell death | almost completely protected from cell killing | completely protected | could rescue normal human hepatocytes
